This is an account of results in patent publication US8268779B2, “Pharmaceutical composition comprising oxyntomodulin derivatives and a method for reducing body weight using the composition” (Merck Sharp & Dohme Corp., priority 2006, dated 2012).

This test deals with glucagon-like activity. Put plainly: Glucagon-like activity in vitro (FIG. 13).

For “HαDGTFTSDYSKYLDSRRAQDFVQWLmNTKRNRNNIAC3-CONH2 [OXM117, (mPEG)240 kDa conjugate made with MPEG2-MAL-40K (NEKTAR)]”, the “glucagon-like activity in vitro” value is given as “no glucagon-like activity”.
